This note sets out measurements from patent US6936585B2, “Corticotropin releasing factor 2 receptor agonists” (priority 2002, dated 2005).

Peptide text beside a SMILES is read from it. Some results are limits rather than exact numbers.

What is called Emax is the maximal effect, on the per cent scale that the assay sets. What is called EC50 is the concentration at which the effect is half-maximal.

One experiment has as its target T1, CRF2R (Homo sapiens, UniProt Q13324).
T1 sequence (Q13324 1-411): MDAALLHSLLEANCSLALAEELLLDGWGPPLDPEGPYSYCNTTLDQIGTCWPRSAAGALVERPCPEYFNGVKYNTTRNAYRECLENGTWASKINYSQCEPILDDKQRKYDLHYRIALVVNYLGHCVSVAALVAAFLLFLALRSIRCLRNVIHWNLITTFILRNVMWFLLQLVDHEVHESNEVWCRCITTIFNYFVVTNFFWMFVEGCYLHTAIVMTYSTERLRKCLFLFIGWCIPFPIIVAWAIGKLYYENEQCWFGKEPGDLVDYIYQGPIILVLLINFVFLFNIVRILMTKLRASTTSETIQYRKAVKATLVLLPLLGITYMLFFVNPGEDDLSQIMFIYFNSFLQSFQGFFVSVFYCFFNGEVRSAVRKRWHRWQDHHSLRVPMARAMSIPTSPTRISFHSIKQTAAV
Kind of experiment: CRF2R agonist activation (EC50 / Emax), called comparative CRF binding. The experiment is classed as cell-based. As to conditions: for Emax: read-out: CRF2R Emax; for EC50: read-out: CRF2R EC50. The method in brief:
(§1)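 Read-out is Gαs-driven cAMP induction, quantified directly in lysates or through CRE-reporter gene expression, after treating CRF1R- or CRF2R-expressing cells with peptide. Vehicle-treated cells serve as the comparison.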

For a further experiment, the target named is T2, CRF1R (Homo sapiens, UniProt P34998).
T2 sequence (P34998 24-415): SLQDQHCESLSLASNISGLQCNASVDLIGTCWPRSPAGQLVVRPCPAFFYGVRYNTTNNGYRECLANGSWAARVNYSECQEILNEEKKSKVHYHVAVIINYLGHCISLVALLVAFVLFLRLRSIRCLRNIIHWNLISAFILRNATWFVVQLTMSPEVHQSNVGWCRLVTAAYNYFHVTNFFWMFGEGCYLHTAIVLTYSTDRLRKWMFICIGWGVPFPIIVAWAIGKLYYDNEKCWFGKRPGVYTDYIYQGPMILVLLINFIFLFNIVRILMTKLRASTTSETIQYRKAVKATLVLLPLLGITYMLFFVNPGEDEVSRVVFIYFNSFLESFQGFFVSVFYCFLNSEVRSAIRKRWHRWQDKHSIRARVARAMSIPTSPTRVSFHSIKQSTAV
Briefly: CRF1R agonist activation (EC50 / Emax), called comparative CRF binding. The experiment is classed as cell-based. As to conditions: for Emax: read-out: CRF1R Emax; for EC50: read-out: CRF1R EC50. The method in brief: as §1

For `CC[C@H](C)[C@H](N)C(=O)N[C@H](C(=O)N[C@@H](CC(C)C)C(=O)N[C@@H](CO)C(=O)N[C@@H](CC(C)C)C(=O)N[C@@H](CC(=O)O)C(=O)N[C@H](C(=O)N1CCC[C@H]1C(=O)N[C@H](C(=O)NCC(=O)N[C@@H](CC(C)C)C(=O)N[C@@H](CC(C)C)C(=O)N[C@@H](CCC(N)=O)C(=O)N[C@H](C(=O)N[C@@H](CC(C)C)C(=O)N[C@@H](CC(C)C)C(=O)N[C@@H](CCC(=O)O)C(=O)N[C@@H](CCCCN)C(=O)N[C@@H](C)C(=O)N[C@@H](C)C(=O)N[C@@H](C)C(=O)N[C@@H](CCC(=O)O)C(=O)N[C@@H](C)C(=O)N[C@@H](CCC(=O)O)C(=O)N[C@@H](C)C(=O)N[C@@H](C)C(=O)N[C@@H](C)C(=O)N[C@@H](CCCCN)C(=O)N[C@@H](C)C(=O)N[C@@H](C)C(=O)N[C@@H](CCC(N)=O)C(=O)N[C@@H](CCC(=O)O)C(=O)N[C@@H](CCC(N)=O)C(=O)N[C@H](C(=O)N[C@@H](CC(C)C)C(=O)N[C@@H](C)C(=O)N[C@@H](Cc1c[nH]cn1)C(=O)N[C@H](C(N)=O)C(C)C)[C@@H](C)CC)[C@@H](C)CC)[C@@H](C)CC)C(C)C)C(C)C` [compound 366] (H-IVLSLDVPIGLLQILLEKAAAEAEAAAKAAQEQILAHV-NH2), the Emax at CRF2R amounted to 46%; on CRF1R it was 9%.
Turning to `CC[C@H](C)[C@H](N)C(=O)N[C@H](C(=O)N[C@@H](CC(C)C)C(=O)N[C@@H](CO)C(=O)N[C@@H](CC(C)C)C(=O)N[C@@H](CC(=O)O)C(=O)N[C@H](C(=O)N1CCC[C@H]1C(=O)N[C@H](C(=O)NCC(=O)N[C@@H](CC(C)C)C(=O)N[C@@H](CC(C)C)C(=O)N[C@@H](CCC(N)=O)C(=O)N[C@H](C(=O)N[C@@H](CC(C)C)C(=O)N[C@@H](CC(C)C)C(=O)N[C@@H](CCC(=O)O)C(=O)N[C@@H](CCC(N)=O)C(=O)N[C@@H](C)C(=O)N[C@@H](CCCNC(=N)N)C(=O)N[C@@H](Cc1c[nH]cn1)C(=O)N[C@@H](C)C(=O)N[C@@H](C)C(=O)N[C@@H](C)C(=O)N[C@@H](Cc1c[nH]cn1)C(=O)N[C@@H](C)C(=O)N[C@@H](C)C(=O)N[C@@H](C)C(=O)N[C@@H](Cc1c[nH]cn1)C(=O)N[C@@H](C)C(=O)N[C@@H](CCC(N)=O)C(=O)N[C@@H](C)C(=O)N[C@@H](Cc1c[nH]cn1)C(=O)N[C@H](C(=O)N[C@@H](CC(C)C)C(=O)N[C@@H](C)C(=O)N[C@@H](Cc1c[nH]cn1)C(=O)N[C@H](C(N)=O)C(C)C)[C@@H](C)CC)[C@@H](C)CC)[C@@H](C)CC)C(C)C)C(C)C` [compound 367] (H-IVLSLDVPIGLLQILLEQARHAAAHAAAHAQAHILAHV-NH2), on CRF2R, the EC50 is not below 100 nM and the Emax came to 18%. Besides, at CRF1R, the EC50 is not below 1000 nM and the Emax stood at 6%.
Turning to `CC[C@H](C)[C@H](N)C(=O)N[C@H](C(=O)N[C@@H](CC(C)C)C(=O)N[C@@H](CO)C(=O)N[C@@H](CC(C)C)C(=O)N[C@@H](CC(=O)O)C(=O)N[C@H](C(=O)N1CCC[C@H]1C(=O)N[C@H](C(=O)NCC(=O)N[C@@H](CC(C)C)C(=O)N[C@@H](CC(C)C)C(=O)N[C@@H](CCC(N)=O)C(=O)N[C@H](C(=O)N[C@@H](CC(C)C)C(=O)N[C@@H](CC(C)C)C(=O)N[C@@H](CCC(=O)O)C(=O)N[C@@H](CCC(N)=O)C(=O)N[C@@H](C)C(=O)N[C@@H](CCCNC(=N)N)C(=O)N[C@@H](Cc1c[nH]cn1)C(=O)N[C@@H](C)C(=O)N[C@@H](Cc1c[nH]cn1)C(=O)N[C@@H](C)C(=O)N[C@@H](Cc1c[nH]cn1)C(=O)N[C@@H](C)C(=O)N[C@@H](Cc1c[nH]cn1)C(=O)N[C@@H](C)C(=O)N[C@@H](Cc1c[nH]cn1)C(=O)N[C@@H](C)C(=O)N[C@@H](CCC(N)=O)C(=O)N[C@@H](C)C(=O)N[C@@H](Cc1c[nH]cn1)C(=O)N[C@H](C(=O)N[C@@H](CC(C)C)C(=O)N[C@@H](C)C(=O)N[C@@H](Cc1c[nH]cn1)C(=O)N[C@H](C(N)=O)C(C)C)[C@@H](C)CC)[C@@H](C)CC)[C@@H](C)CC)C(C)C)C(C)C` [compound 369] (H-IVLSLDVPIGLLQILLEQARHAHAHAHAHAQAHILAHV-NH2), the maximal effect (Emax) was 18% on CRF2R and 4% on CRF1R.
`CC[C@H](C)[C@H](N)C(=O)N[C@H](C(=O)N[C@@H](CC(C)C)C(=O)N[C@@H](CO)C(=O)N[C@@H](CC(C)C)C(=O)N[C@@H](CC(=O)O)C(=O)N[C@H](C(=O)N[C@@H](CO)C(=O)N[C@H](C(=O)NCC(=O)N[C@@H](CC(C)C)C(=O)N[C@@H](CC(C)C)C(=O)N[C@@H](CCC(N)=O)C(=O)N[C@H](C(=O)N[C@@H](CC(C)C)C(=O)N[C@@H](CC(C)C)C(=O)N[C@@H](CCC(=O)O)C(=O)N[C@@H](CCC(N)=O)C(=O)N[C@@H](C)C(=O)N[C@@H](CCCNC(=N)N)C(=O)N[C@@H](C)C(=O)N[C@@H](CCCNC(=N)N)C(=O)N[C@@H](C)C(=O)N[C@@H](C)C(=O)N[C@@H](CCCNC(=N)N)C(=O)N[C@@H](CCC(=O)O)C(=O)N[C@@H](CCC(N)=O)C(=O)N[C@@H](C)C(=O)N[C@H](C(=O)N[C@H](C(=O)N[C@@H](CC(N)=O)C(=O)N[C@@H](C)C(=O)N[C@@H](CCCNC(=N)N)C(=O)N[C@H](C(=O)N[C@@H](CC(C)C)C(=O)N[C@@H](C)C(=O)N[C@@H](CCCNC(=N)N)C(=O)N[C@H](C(N)=O)C(C)C)[C@@H](C)CC)[C@@H](C)O)[C@@H](C)O)[C@@H](C)CC)[C@@H](C)CC)C(C)C)C(C)C` [compound 370] (H-IVLSLDVSIGLLQILLEQARARAAREQATTNARILARV-NH2; N-terminus assumed): on CRF2R, the EC50 stood at 51 nM and the Emax came to 75%. At CRF1R, the EC50 was not below 1000 nM and the Emax was determined as 33%.
As to `CC[C@H](C)[C@H](N)C(=O)N[C@H](C(=O)N[C@@H](CC(C)C)C(=O)N[C@@H](CO)C(=O)N[C@@H](CC(C)C)C(=O)N[C@@H](CC(=O)O)C(=O)N[C@H](C(=O)N1CCC[C@H]1C(=O)N[C@H](C(=O)N[C@@H](Cc1c[nH]cn1)C(=O)N[C@@H](CC(C)C)C(=O)N[C@@H](CC(C)C)C(=O)N[C@@H](CCC(N)=O)C(=O)N[C@H](C(=O)N[C@@H](CC(C)C)C(=O)N[C@@H](CC(C)C)C(=O)N[C@@H](CCC(=O)O)C(=O)N[C@@H](CCC(N)=O)C(=O)N[C@@H](C)C(=O)N[C@@H](CCCNC(=N)N)C(=O)N[C@@H](C)C(=O)N[C@@H](CCCNC(=N)N)C(=O)N[C@@H](C)C(=O)N[C@@H](C)C(=O)N[C@@H](CCCNC(=N)N)C(=O)N[C@@H](CCC(=O)O)C(=O)N[C@@H](CCC(N)=O)C(=O)N[C@@H](C)C(=O)N[C@H](C(=O)N[C@H](C(=O)N[C@@H](CC(N)=O)C(=O)N[C@@H](C)C(=O)N[C@@H](CCCNC(=N)N)C(=O)N[C@H](C(=O)N[C@@H](CC(C)C)C(=O)N[C@@H](C)C(=O)N[C@@H](CCCNC(=N)N)C(=O)N[C@H](C(N)=O)C(C)C)[C@@H](C)CC)[C@@H](C)O)[C@@H](C)O)[C@@H](C)CC)[C@@H](C)CC)C(C)C)C(C)C` [compound 371] (H-IVLSLDVPIHLLQILLEQARARAAREQATTNARILARV-NH2; N-terminus assumed), the Emax on CRF2R came to 97%; at CRF1R, 22%.
Take `CC[C@H](C)[C@H](NC(=O)[C@H](CCCNC(=N)N)NC(=O)[C@H](C)NC(=O)[C@H](CC(N)=O)NC(=O)[C@H](CCC(N)=O)NC(=O)[C@H](CCC(=O)O)NC(=O)[C@H](C)NC(=O)[C@H](CCCNC(=N)N)NC(=O)[C@H](CCC(=O)O)NC(=O)[C@H](CCCNC(=N)N)NC(=O)[C@H](CCC(N)=O)NC(=O)[C@H](CO)NC(=O)[C@H](CCC(N)=O)NC(=O)[C@@H](NC(=O)[C@H](CCCCN)NC(=O)[C@H](CCC(=O)O)NC(=O)[C@H](CC(C)C)NC(=O)[C@H](CCC(=O)O)NC(=O)[C@H](CC(C)C)NC(=O)[C@H](CC(C)C)NC(=O)[C@@H](NC(=O)[C@H](CCCNC(=N)N)NC(=O)[C@H](CC(C)C)NC(=O)[C@H](CC(C)C)NC(=O)[C@H](CC(C)C)NC(=O)[C@H](CC(C)C)NC(=O)[C@@H]1CCCN1C(=O)[C@@H](NC(=O)[C@H](CC(=O)O)NC(=O)[C@@H](NC(=O)[C@H](CO)NC(=O)[C@H](CC(C)C)NC(=O)[C@H](CO)NC(=O)[C@@H]1CCCN1C(=O)[C@H](CC(N)=O)NC(=O)[C@@H](N)CC(=O)O)[C@@H](C)CC)C(C)C)[C@@H](C)O)[C@@H](C)O)C(=O)N[C@@H](Cc1ccccc1)C(=O)N[C@@H](C)C(=O)N[C@@H](CCCNC(=N)N)C(=O)N[C@H](C(N)=O)C(C)C` [compound 384] (H-DNPSLSIDVPLLLLRTLLELEKTQSQRERAEQNARIFARV-NH2; N-terminus assumed): the Emax on CRF2R was 97.3%; at CRF1R, 70.3%.
